Reference: patent US4180564A, “A-38533 Antibiotics and process for production thereof” (Eli Lilly and Company, priority 1978, dated 1979)
Values after ≈ are worked out from the molar mass of the structure shown.

How the values were obtained:
P. aeruginosa = assay: In vivo antimicrobial activity, P. aeruginosa infection in mice; conditions: Pseudomonas aeruginosa, sc
From the text: The A-38533 antibiotics have shown in vivo antimicrobial activity against experimental bacterial infections. […] Bacteriol. 81, 233-235 (1961)]. The LD50 values in Table XI refer to the infecting challenge of the pathogen, the measure being the number by which the LD50 (ip) of the infecting organism is multiplied.

Pseudomonas aeruginosa = assay: In vitro activity, standard agar-dilution test (MIC); format: cell-based
From the text: The A-38533 antibiotics inhibit the growth of certain gram-negative pathogenic organisms, particularly Pseudomonas species. The minimal inhibitory concentrations (MIC's) at which the A-38533 factors A1, A2, B and C inhibit various strains of Pseudomonas aeruginosa and Neisseria gonorrhea, as determined by standard agar-dilution tests, are summarized in Table X.

Structure (SMILES)	ED50 (P. aeruginosa; Test A, P. aeruginosa X239, SC, ×3 doses, challenge 76 × LD50 (ip)) [mg/kg]	ED50 (P. aeruginosa; Test B, P. aeruginosa 24J, ×3 doses, challenge 7.6 × LD50 (ip)) [mg/kg]	ED50 (P. aeruginosa; Test C, P. aeruginosa 24J, ×3 doses, challenge 21.5 × LD50 (ip)) [mg/kg]	MIC (Pseudomonas aeruginosa; strain 4276) [µg/mL]	MIC (Pseudomonas aeruginosa; strain PA103) [µg/mL]	MIC (Pseudomonas aeruginosa; strain PI23) [µg/mL]	MIC (Pseudomonas aeruginosa; strain PS9) [µg/mL]	MIC (Pseudomonas aeruginosa; strain PS15) [µg/mL]	MIC (Pseudomonas aeruginosa; strain PS25) [µg/mL]	MIC (Pseudomonas aeruginosa; strain X48) [µg/mL]	MIC (Pseudomonas aeruginosa; strain X239) [µg/mL]	MIC (Pseudomonas aeruginosa; strain X528) [µg/mL]	ED50 (P. aeruginosa; Test A, P. aeruginosa X239, SC, ×2 doses, challenge 76 × LD50 (ip)) [mg/kg]	ED50 (P. aeruginosa; Test B, P. aeruginosa 24J, ×2 doses, challenge 7.6 × LD50 (ip)) [mg/kg]	ED50 (P. aeruginosa; Test C, P. aeruginosa 24J, ×2 doses, challenge 21.5 × LD50 (ip)) [mg/kg]
CC1(C)S[C@@H]2[C@H](NC(=O)C(C(=O)O)c3ccccc3)C(=O)N2[C@H]1C(=O)O (stereo partly drawn) [Carbenicillin]	29.3	31.9	57.5	128 (≈ 338 µM)	32 (≈ 84.6 µM)	32 (≈ 84.6 µM)	32 (≈ 84.6 µM)	16 (≈ 42.3 µM)	64 (≈ 169 µM)	16 (≈ 42.3 µM)	32 (≈ 84.6 µM)	16 (≈ 42.3 µM)	–	–	–
NC[C@H]1O[C@H](O[C@H]2[C@H](O)[C@@H](O[C@H]3O[C@H](CO)[C@@H](O)[C@H](N)[C@H]3O)[C@H](N)C[C@@H]2N)[C@H](N)C[C@@H]1O [Tobramycin]	–	–	–	–	–	–	–	–	–	–	–	–	0.4	0.4	0.6
